From patent publication US11426397B2, “Piperidinyl- and piperazinyl-substituted heteroaromatic carboxamides as modulators of GPR6” (TAKEDA PHARMACEUTICAL COMPANY LIMITED, priority 2017, dated 2022)

target: T1, GPR6 receptor expressed in CHO-K1 cells (Homo sapiens, UniProt P46095); assay: In vitro inhibition of cAMP (EC50), cell-based HTRF cAMP assay; conditions: inhibition of constitutive cAMP activity of GPR6 in CHO-K1 cells
T1 construct: expressed in transfected cells
Method: I. In Vitro Inhibition of cAMP (EC50)
This cell based assay measures the ability of test compounds to inhibit the constitutive cAMP activity of GPR6 receptor expressed in CHO-K1 cells. CHO cells are stably expressed with GPR6 receptor, whose expression is controlled by a tetracycline inducible element. The cells were cultured in medium containing F12K, 10% FBS, 1% Penn/Strep, 200 μg/mL Hygromycin. GPR6 receptor expression is induced for 20 hours with 2 μg/mL doxycycline (Sigma D9891) in growth media. After addition of doxycycline, the cells are plated at a density of 450-750 cells per well in 96-well half-volume black tissue culture plates (Costar) and placed in an incubator (37° C., 5% CO2) for 20 hours prior to cAMP assays.
Culture media is removed from the cells and they are washed with 50 μL/well of Ringer's Buffer (MgCl2 0.047 mg/mL, NaH2PO4 0.18 mg/mL, Na2HPO4 0.1 mg/mL, KCl 0.34 mg/mL, NaHCO3 1.26 mg/mL, D-glucose 1.8 mg/mL, NaCl 7 mg/mL; pH=7.4). The test compounds are suspended in DMSO, diluted in Ringer's Buffer containing 0.5% fatty acid free BSA plus 300 μM IBMX, and incubated on the cells for 45 minutes at 37° C. and 5% CO2. After incubation, the cells are conditioned for 10 minutes at room temp with Eu-cAMP tracer solution from a Perkin Elmer Lance HTRF Ultra cAMP assay kit (TRF0263). Then ULight™-anti-cAMP solution from the Lance HTRF kit is added and incubated on a shaker at room temp for 1 hour prior to HTRF detection in a Perkin Elmer Envision plate reader. EC50 curves are generated with a four-parameter logistic equation using GraphPad Prism 5.03.
Table 1 lists biological assay data (in vitro inhibition of cAMP) for some of the compounds shown in the examples, where larger pEC50 values represent higher activity or potency. All of the compounds shown in Table 1 were tested in accordance with a cell-based assay which measures the ability of test compounds to inhibit the constitutive cAMP activity of GPR6 receptor expressed in CHO-K1 cells (reported as pEC50). The assay is described in the specification under the heading “In vitro inhibition of cAMP (EC50).”

T1 sequence (P46095 whole entry): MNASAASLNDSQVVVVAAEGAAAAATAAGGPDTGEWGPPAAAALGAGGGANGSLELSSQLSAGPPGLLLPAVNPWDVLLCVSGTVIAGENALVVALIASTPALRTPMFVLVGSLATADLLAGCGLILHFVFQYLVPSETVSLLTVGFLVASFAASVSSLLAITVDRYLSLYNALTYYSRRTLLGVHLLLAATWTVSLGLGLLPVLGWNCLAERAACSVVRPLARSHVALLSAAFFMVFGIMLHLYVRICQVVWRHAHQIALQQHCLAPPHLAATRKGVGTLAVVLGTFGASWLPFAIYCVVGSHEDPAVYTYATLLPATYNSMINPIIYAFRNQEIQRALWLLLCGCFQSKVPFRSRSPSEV

Structure (SMILES) | pEC50, in vitro inhibition of cAMP
COc1ncncc1C(=O)Nc1cc(C#N)ccc1N1CCC(Oc2ccc(F)cc2F)CC1 [Example 37, N-(5-cyano-2-(4-(2,4-difluorophenoxy)piperidin-1-yl)phenyl)-4-methoxypyrimidine-5-carboxamide] | 7.1
COc1nc(C(F)(F)F)ccc1C(=O)Nc1cc(C#N)ccc1N1CCC(Oc2ccc(F)cc2F)CC1 [Example 213] | 6.8
Cc1cc(C(=O)Nc2cc(C#N)ccc2N2CCC(Oc3ccc(F)cc3F)CC2)nc(C)n1 [Example 135, N-(5-cyano-2-(4-(2,4-difluorophenoxy)piperidin-1-yl)phenyl)-2,6-dimethylpyrimidine-4-carboxamide] | 6.8
Cc1ccc(NC(=O)c2cc(F)cnc2O)c(N2CCN(Cc3ccc(F)cc3)CC2)n1 [Example 101, 5-fluoro-N-(2-(4-(4-fluorobenzyl)piperazin-1-yl)-6-methylpyridin-3-yl)-2-hydroxynicotinamide] | 5.9
N#Cc1ccc(N2CCC(Oc3ccc(F)cc3F)CC2)c(NC(=O)c2ccc[nH]c2=O)c1 [Example 274] | 7.0
COc1c(C)ccc(C)c1C(=O)Nc1cc(C#N)ccc1N1CCC(Oc2ccc(F)cc2F)CC1 [Example 214, N-(5-cyano-2-(4-(2,4-difluorophenoxy)piperidin-1-yl)phenyl)-2-methoxy-3,6-dimethylbenzamide] | 5.5
COCCCn1cccc(C(=O)Nc2cc(C#N)ccc2N2CCC(Oc3ccc(F)cc3F)CC2)c1=O [Example 199] | 5.9
COc1ccncc1C(=O)Nc1cnc(C)cc1N1CCC(Oc2ccc(F)cc2F)CC1 [Example 263] | 7.1
N#Cc1ccc(N2CCC(Oc3ccc(F)cc3F)CC2)c(NC(=O)c2cnccn2)c1 [Example 44, N-(5-cyano-2-(4-(2,4-difluorophenoxy)piperidin-1-yl)phenyl)pyrazine-2-carboxamide] | 6.2
N#Cc1ccc(N2CCC(Oc3ccc(F)cc3F)CC2)c(NC(=O)c2ncc(F)cc2F)c1 [Example 49, N-(5-cyano-2-(4-(2,4-difluorophenoxy)piperidin-1-yl)phenyl)-3,5-difluoropicolinamide] | 6.5
COc1ccncc1C(=O)Nc1cc(C(=O)N(C)C)ncc1N1CCC(Oc2ccc(F)cc2F)CC1 [Example 262, 5-(4-(2,4-difluorophenoxy)piperidin-1-yl)-4-(4-methoxynicotinamido)-N,N-dimethylpicolinamide] | 7.3
COc1cccc(OC)c1C(=O)Nc1cc(C#N)ccc1N1CCC(Oc2ccc(F)cc2F)CC1 [Example 238, N-(5-cyano-2-(4-(2,4-difluorophenoxy)piperidin-1-yl)phenyl)-2,6-dimethoxybenzamide] | 5.0
COc1ncc(F)cc1C(=O)Nc1cc(C#N)ccc1N1CCC(Oc2ccc(F)cc2F)CC1 [Example 224, N-(5-cyano-2-(4-(2,4-difluorophenoxy)piperidin-1-yl)phenyl)-5-fluoro-2-methoxynicotinamide] | 7.3
COc1ccc(C(=O)Nc2cc(C#N)ccc2N2CCC(Oc3ccc(F)cc3F)CC2)nn1 [Example 136, N-(5-cyano-2-(4-(2,4-difluorophenoxy)piperidin-1-yl)phenyl)-6-methoxypyridazine-3-carboxamide] | 6.8
COc1nc2c(cc1C(=O)Nc1cc(C#N)ccc1N1CCC(Oc3ccc(F)cc3F)CC1)CCC2 [Example 196, N-(5-cyano-2-(4-(2,4-difluorophenoxy)piperidin-1-yl)phenyl)-2-methoxy-6,7-dihydro-5H-cyclopenta[b]pyridine-3-carboxamide] | 6.7
Cc1nonc1C(=O)Nc1cc(C#N)ccc1N1CCC(Oc2ccc(F)cc2F)CC1 [Example 119, N-(5-cyano-2-(4-(2,4-difluorophenoxy)piperidin-1-yl)phenyl)-4-methyl-1,2,5-oxadiazole-3-carboxamide] | <5.7
Cn1cc(C(=O)Nc2cc(C#N)ccc2N2CCC(Oc3ccc(F)cc3F)CC2)nn1 [Example 145, N-(5-cyano-2-(4-(2,4-difluorophenoxy)piperidin-1-yl)phenyl)-1-methyl-1H-1,2,3-triazole-4-carboxamide] | 6.6

Structure (SMILES) | pEC50, in vitro inhibition of cAMP
COc1nn(C)cc1C(=O)Nc1cc(C#N)cnc1N1CCN(Cc2cc(F)cc(F)c2)CC1 [Example 169, N-(5-cyano-2-(4-(3,5-difluorobenzyl)piperazin-1-yl)pyridin-3-yl)-3-methoxy-1-methyl-1H-pyrazole-4-carboxamide] | 6.4
Cn1cccc(C(=O)Nc2cc(C#N)ccc2N2CCC(Oc3ccc(F)cc3)CC2)c1=O [Example 4, N-(5-cyano-2-(4-(4-fluorophenoxy)piperidin-1-yl)phenyl)-1-methyl-2-oxo-1,2-dihydropyridine-3-carboxamide] | 6.7
Cn1cccc(C(=O)Nc2cc(C#N)ccc2N2CCC(C(F)c3cc(F)ccc3F)CC2)c1=O (stereo not drawn) [Example 87] | 7.2
Cc1cccn2c(=O)c(C(=O)Nc3cc(C#N)ccc3N3CCC(Oc4ccc(F)cc4F)CC3)cnc12 [Example 197, N-(5-cyano-2-(4-(2,4-difluorophenoxy)piperidin-1-yl)phenyl)-9-methyl-4-oxo-4H-pyrido[1,2-a]pyrimidine-3-carboxamide] | 6.7
N#Cc1ccc(N2CCC(Oc3ccc(F)cc3F)CC2)c(NC(=O)c2ccc(F)cn2)c1 [Example 106, N-(5-cyano-2-(4-(2,4-difluorophenoxy)piperidin-1-yl)phenyl)-5-fluoropicolinamide] | 6.5
COc1ncccc1C(=O)Nc1cc(C#N)ccc1N1CCN(C(=O)c2ccc(Cl)cc2)CC1 [Example 285, N-(2-(4-(4-chlorobenzoyl)piperazin-1-yl)-5-cyanophenyl)-2-methoxynicotinamide] | 6.9
Cn1cccc(C(=O)Nc2ccccc2N2CCC(Oc3ccc(F)cc3F)CC2)c1=O [Example 257, N-(2-(4-(2,4-difluorophenoxy)piperidin-1-yl)phenyl)-1-methyl-2-oxo-1,2-dihydropyridine-3-carboxamide] | 7.0
COc1nc(C)ccc1C(=O)Nc1cc(C#N)c(F)cc1N1CCC(Oc2ccc(F)cc2F)CC1 [Example 39, N-(5-cyano-2-(4-(2,4-difluorophenoxy)piperidin-1-yl)-4-fluorphenyl)-2-methoxy-6-methylnicotinamide] | 7.3
Cn1ccnc1C(=O)Nc1cc(C#N)ccc1N1CCC(Oc2ccc(F)cc2F)CC1 [Example 50, N-(5-cyano-2-(4-(2,4-difluorophenoxy)piperidin-1-yl)phenyl)-1-methyl-1H-imidazole-2-carboxamide] | 6.2
COc1nccc(C(=O)Nc2cc(C#N)ccc2N2CCC(Oc3ccc(F)cc3F)CC2)n1 [Example 144] | 6.9
COc1ncc(F)cc1C(=O)Nc1ccc(C)nc1N1CCN(Cc2ccc(F)cc2)CC1 [Example 100, 5-fluoro-N-(2-(4-(4-fluorobenzyl)piperazin-1-yl)-6-methylpyridin-3-yl)-2-methoxynicotinamide] | 6.8
COc1ncccc1C(=O)Nc1cc(C#N)ccc1N1CCN(Cc2ccsc2)CC1 [Example 73, N-(5-cyano-2-(4-(thiophen-3-ylmethyl)piperazin-1-yl)phenyl)-2-methoxynicotinamide] | 6.5
Cn1cccc(C(=O)Nc2cc(C#N)ccc2N2CCC(C(=O)c3cc(Cl)ccc3F)CC2)c1=O [Example 83] | 6.9
COc1ccc(C(=O)Nc2cc(C#N)ccc2N2CCC(Oc3ccc(F)cc3F)CC2)c(OC)n1 [Example 78, N-(5-cyano-2-(4-(2,4-difluorophenoxy)piperidin-1-yl)phenyl)-2,6-dimethoxynicotinamide] | 6.9
CC(C)n1cc(Br)cc(C(=O)Nc2cc(C#N)ccc2N2CCC(Oc3ccc(F)cc3F)CC2)c1=O [Example 182, 5-bromo-N-(5-cyano-2-(4-(2,4-difluorophenoxy)piperidin-1-yl)phenyl)-1-isopropyl-2-oxo-1,2-dihydropyridine-3-carboxamide] | 6.3
N#Cc1ccc(N2CCC(Oc3ccc(F)cc3F)CC2)c(NC(=O)c2cccn(C(F)F)c2=O)c1 [Example 277, N-(5-cyano-2-(4-(2,4-difluorophenoxy)piperidin-1-yl)phenyl)-1-(difluoromethyl)-2-oxo-1,2-dihydropyridine-3-carboxamide] | 6.5
